Measured values published in US7592160B2, “Processes for producing isomaltose and isomaltitol and use thereof” (Kabushiki Kaisha Hayashibara Seibutsu Kagaku Kenkyujo, priority 2001, dated 2009).

Tests used:
[1] = tested on: α-isomaltosyl-transferring enzyme; test: Influence of metal ions on α-isomaltosyl-transferring enzyme activity (C9 strain); assay type: biochemical, Bacillus globisporus C9 strain; details: for Relative activity (%): in the presence of 1 mM of each metal-ion, None = 100; for effect on the enzyme activity, in words: 1 mM, Table 4
Procedure: (§1) The activity of α-isomaltosyl-transferring enzyme was assayed by dissolving panose in 100 mM acetate buffer (pH 6.0) to give a concentration of 2% (w/v) for a substrate solution, adding a 0.5 ml of an enzyme solution to 0.5 ml of the substrate solution, enzymatically reacting the mixture solution at 35° C. for 30 min, suspending the enzymatic reaction by boiling the solution for 10 min, and quantifying glucose, among the cyclotetrasaccharide and glucose formed mainly in the reaction mixture, by the glucose oxidase method. One unit activity of α-isomaltosyl-transferring enzyme is defined as the enzyme amount that forms one micromole of glucose per minute under the above enzymatic reaction conditions. Throughout the specification, the enzymatic activity of α-isomaltosyl-transferring enzyme means the unit(s) assayed as above.
(§2) The influence of metal ions on the activity of α-isomaltosyl-transferring enzyme was examined in the presence of 1 mM of each metal-ion according to the assay for its enzyme activity.

[2] = tested on: α-isomaltosyl-transferring enzyme; test: Influence of metal ions on α-isomaltosyl-transferring enzyme activity (C11 strain); assay type: biochemical, Bacillus globisporus C11 strain; details: for Relative activity (%): in the presence of 1 mM of each metal-ion, None = 100; for effect on the enzyme activity, in words: 1 mM, text on Table 8
Procedure: as §1, §2

[3] = tested on: α-isomaltosyl-transferring enzyme; test: Influence of metal ions on α-isomaltosyl-transferring enzyme activity (N75 strain); assay type: biochemical, Bacillus globisporus N75 strain; details: for Relative activity (%): in the presence of 1 mM of each metal-ion, None = 100; for effect on the enzyme activity, in words: 1 mM, Table 14
Procedure: as §1
The influence of temperature and pH on the activity of α-isomaltosyl-transferring enzyme was examined in accordance with the assay for its enzyme activity. […] The thermal stability of the enzyme was determined by incubating the testing enzyme solutions in the form of 20 mM acetate buffer (pH 6.0) at prescribed temperatures for 60 min, cooling the resulting enzyme solutions with water, and assaying the remaining enzyme activity of each solution. The pH stability of the enzyme was determined by keeping the testing enzyme solutions in the from of 50 mM buffers having prescribed pHs at 4° C. for 24 hours, adjusting the pH of each solution to 6.0, and assaying the remaining enzyme activity of each solution. […] The influence of metal ions on the activity of α-isomaltosyl-transferring enzyme was examined in the presence of 1 mM of each metal-ion according to the assay for its enzyme activity.

[4] = tested on: α-isomaltosylglucosaccharide-forming enzyme; test: Influence of metal ions on α-isomaltosylglucosaccharide-forming enzyme activity (A19 strain); assay type: biochemical, Arthrobacter globiformis A19 strain; details: for Relative activity (%): in the presence of 1 mM of each metal-ion, None = 100; for effect on the enzyme activity, in words: 1 mM, Table 19
[5] = tested on: α-isomaltosyl-transferring enzyme; test: Influence of metal ions on α-isomaltosyl-transferring enzyme activity (S1 strain); assay type: biochemical, Arthrobacter ramosus S1 strain; details: for Relative activity (%): in the presence of 1 mM of each metal-ion, None = 100; for effect on the enzyme activity, in words: 1 mM, Table 21
Procedure: as §1, §2

[6] = tested on: α-isomaltosylglucosaccharide-forming enzyme; test: Influence of metal ions on α-isomaltosylglucosaccharide-forming enzyme activity (C9 strain); assay type: biochemical, Bacillus globisporus C9 strain; details: for effect on the enzyme activity, in words: 1 mM, Table 3; for Relative activity (%): in the presence of 1 mM of each metal-ion, None = 100
Procedure: (§3) About 20 L of a fresh preparation of the same liquid culture medium as used in the above seed culture were placed in a 30-L fermentor, sterilized by heating, and then cooled to 27° C. and inoculated with 1% (v/v) of the seed culture, followed by culturing at 27° C. and pH 6.0 to 8.0 for 48 hours under aeration-agitation conditions. […] These activities were assayed as follows: The activity of α-isomaltosylglucosaccharide-forming enzyme was assayed by dissolving maltotriose in 100 mM acetate buffer (pH 6.0) to give a concentration of 2% (w/v) for a substrate solution, adding a 0.5 ml of an enzyme solution to a 0.5 ml of the substrate solution, enzymatically reacting the mixture solution at 35° C. for 60 min, suspending the enzymatic reaction by boiling the solution for 10 min, and quantifying maltose, among the isomaltosyl maltose and maltose formed mainly in the reaction mixture, on HPLC disclosed in Experiment 1. One unit activity of α-isomaltosylglucosaccharide-forming enzyme is defined as the enzyme amount that forms one micromole of maltose per minute under the above enzymatic reaction conditions. Throughout the specification, the enzymatic activity of α-isomaltosylglucosaccharide-forming enzyme means the unit(s) assayed as above.
(§4) The influence of metal ions on the activity of α-isomaltosylglucosaccharide-forming enzyme was examined in the presence of 1 mM of each metal-ion according to the assay for its enzyme activity.

[7] = tested on: α-isomaltosylglucosaccharide-forming enzyme; test: Influence of metal ions on α-isomaltosylglucosaccharide-forming enzyme activity (C11 strain); assay type: biochemical, Bacillus globisporus C11 strain; details: for effect on the enzyme activity, in words: 1 mM, Table 7; for Relative activity (%): in the presence of 1 mM of each metal-ion, None = 100
[8] = tested on: α-isomaltosylglucosaccharide-forming enzyme; test: Influence of metal ions on α-isomaltosylglucosaccharide-forming enzyme activity (N75 strain); assay type: biochemical, Bacillus globisporus N75 strain; details: for Relative activity (%): in the presence of 1 mM of each metal-ion, None = 100; for effect on the enzyme activity, in words: 1 mM, Table 13
Procedure: as §3, §4

Row | SMILES | Relative activity (%) [1] [%] | Relative activity (%) [2] [%] | Relative activity (%) [3] [%] | Relative activity (%) [4] [%] | Relative activity (%) [5] [%] | effect on the enzyme activity, in words [6] | Relative activity (%) [6] [%] | effect on the enzyme activity, in words [7] | Relative activity (%) [7] [%] | Relative activity (%) [8] [%] | effect on the enzyme activity, in words [1] | effect on the enzyme activity, in words [2] | effect on the enzyme activity, in words [8] | effect on the enzyme activity, in words [3] | effect on the enzyme activity, in words [5] | effect on the enzyme activity, in words [4] | Relative activity (%) ([2]; listed as Fe^3+) | Relative activity (%) ([3]; listed as Fe^3+) | Relative activity (%) ([4]; listed as Fe^3+) | Relative activity (%) ([5]; listed as Fe^3+)
1 | [Al+3] [Al^3+] | 103 | 89 | 94 | 37 | 93 | – | – | – | – | – | – | – | – | – | – | – | – | – | – | –
2 | [Ba+2] [Ba^2+] | 102 | 90 | 102 | 99 | 97 | also inhibited | 65 | also inhibited | 65 | 84 | – | – | – | – | – | – | – | – | – | –
3 | [Ca+2] [Ca^2+] | 101 | 91 | 100 | 106 | 103 | activated | 115 | activated | 109 | 108 | not activated | not activated | activated | not activated | neither activated | – | – | – | – | –
4 | [Co+2] [Co^2+] | 103 | 89 | 92 | 93 | 91 | – | 100 | – | 96 | 93 | – | – | – | – | – | – | – | – | – | –
5 | [Cu+2] [Cu^2+] | 57 | 56 | 15 | 0 | 2 | strongly inhibited | 15 | strongly inhibited | 23 | 7 | also inhibited | also inhibited | strongly inhibited | also inhibited | also inhibited | strongly inhibited | – | – | – | –
6 | O=C(O)CN(CCN(CC(=O)O)CC(=O)O)CC(=O)O [EDTA, ethylenediaminetetraacetic acid] | 104 | 98 | 92 | 2 | 91 | strongly inhibited | 20 | strongly inhibited | 24 | 35 | not inhibited | not inhibited | strongly inhibited | not inhibited | neither activated | strongly inhibited | – | – | – | –
7 | [Hg+2] [Hg^2+] | 1 | 2 | 0.5 | 0 | 0.1 | strongly inhibited | 4 | strongly inhibited | 4 | 1 | strongly inhibited | strongly inhibited | strongly inhibited | strongly inhibited | strongly inhibited | strongly inhibited | – | – | – | –
8 | [Ni+2] [Ni^2+] | 102 | 89 | 91 | 46 | 87 | – | – | – | – | – | – | – | – | – | – | – | – | – | – | –
9 | [Pb+2] [Pb^2+] | 89 | 74 | 69 | 43 | 85 | – | 103 | – | 101 | 86 | – | – | – | – | – | – | – | – | – | –

The remaining lines, values ahead:

Row | Relative activity (%) [1] [%] | Relative activity (%) [2] [%] | Relative activity (%) [3] [%] | Relative activity (%) [4] [%] | Relative activity (%) [5] [%] | effect on the enzyme activity, in words [6] | Relative activity (%) [6] [%] | effect on the enzyme activity, in words [7] | Relative activity (%) [7] [%] | Relative activity (%) [8] [%] | effect on the enzyme activity, in words [1] | effect on the enzyme activity, in words [2] | effect on the enzyme activity, in words [8] | effect on the enzyme activity, in words [3] | effect on the enzyme activity, in words [5] | effect on the enzyme activity, in words [4] | Relative activity (%) ([2]; listed as Fe^3+) | Relative activity (%) ([3]; listed as Fe^3+) | Relative activity (%) ([4]; listed as Fe^3+) | Relative activity (%) ([5]; listed as Fe^3+) | SMILES
10 | – | – | – | 36 | – | – | – | – | – | 82 | – | – | – | – | – | – | 88 | 90 | 35 | 75 | [Fe+2] [Fe^2+]
11 | 106 | – | – | – | – | activated | 111 | activated | 142 | 120 | – | – | activated | – | – | – | – | – | – | – | [Mn+2] [Mn^2+]
12 | 101 | 93 | 91 | 102 | 101 | also inhibited | 80 | also inhibited | 83 | 85 | – | – | – | – | – | – | – | – | – | – | [Sr+2] [Sr^2+]
13 | 88 | 83 | 75 | 56 | 78 | – | 92 | – | 91 | 82 | – | – | – | – | – | – | – | – | – | – | [Zn+2] [Zn^2+]
